Source: patent publication US12168668B2, “Compounds for the treatment of cancer and inflammatory disease” (SHY Therapeutics LLC, priority 2015, dated 2024)

Assays:
IL-6 = experiment: Mouse IL6 quantification assay (LPS-stimulated RAW 264.7, ELISA); type: cell-based; details: RAW264.7, RAW 264.7 macrophage cell line, LPS stimulation 16 h
Method: (§1) Protocol for Mouse TNF Alpha and IL6 Quantification Assay
(§2) Cell lines: Abelson murine leukemia virus transformed macrophage cell line RAW 264.7 was purchased from ATCC and grown in complete DMEM-High Glucose medium supplemented with penicillin (100 U/mL), streptomycin (100 μg/mL), and 10% heat-inactivated FBS at 37° C. in a humidified incubator with 5% CO2.
(§3) Method: Cells were plated at 40000 cells/well density in a 96-wells plate. After a 3-hour incubation, macrophages were starved with DMEM plus 0.5% FBS o/n. The next day the small molecules to be tested were added to the cells in the final concentration of 30 μM (with 0.3% DMSO) 3 hours prior to LPS stimulation (100 ng/ml). After LPS stimulation cells were incubated at 37° C. for 16 h. At the end of the incubation period, culture media were collected and production of LPS-induced TNFα and IL6 cytokine was measured using ELISA detection kits.
(§4) Sandwich ELISA: The ELISA Immunoassays Quantikine Mouse TNF-alpha (catalog number MTA00B) and IL6 (catalog number M6000B) were purchased from R&D Systems Inc., Minneapolis, MN These 4.5 hours solid phase ELISAs were used to measure mouse TNFα or IL6 levels in macrophages culture supernatants. Assays were executed according to the manufacturer specifications.

TNFα = experiment: Mouse TNF alpha quantification assay (LPS-stimulated RAW 264.7, ELISA); type: cell-based; details: RAW264.7, RAW 264.7 macrophage cell line, LPS stimulation 16 h
Method: as §1, §2, §3, §4

SMILES | inhibition at 30 µM (IL-6) [%] | inhibition at 30 µM (TNFα) [%]
Oc1ccc(C2(c3ccccc3)CCCC2)cc1 | 76 to 100 | 76 to 100
Oc1nc(-c2ccccn2)nc2c(-c3ccccc3)csc12 | – | 76 to 100
Oc1nc(-c2ccccn2)nc2c(-c3ccccc3Cl)csc12 | – | 51 to 75
